Measured values as given in patent US10287300B2 (Merck Patent GmbH, priority 2012, dated 2019).
pIC50: −log10 of the molar value.

Assays:
His-AKT (Full Length) = His-AKT (Full Length) (Homo sapiens (Human), UniProt P31749); assay: AKT enzyme assay; type: biochemical; conditions: 160 uM ATP, 90 min at 25° C.
Procedure: A TTP Mosquito liquid handling instrument was used to place 125 nl of the appropriate concentration of inhibitor in 100% DMSO (for a dose response curve calculation) into each well of a 384-well plate. To this reaction components were added to a final volume of 12.5 μl: • 0.1 ng/μl His-AKT (Full Length), (Invitrogen, Part # P2999, Lot #641228C). • 160 uM ATP (Fluka, 02055) • 1 mM DTT (Sigma, D0632) • 1 mM MgCl2 (Sigma, M1028) • 1 μM substrate peptide (sequence FITC-AHA-GRPRTSSFAEG-NH2), • synthesized by Tufts Peptide Synthesis service. • 100 mM HEPES pH 7.5 (Calbiochem, 391338) • 0.015% Brij-35 (Sigma, B4184)
The reaction was incubated for 90 min at 25° C., and then stopped by the addition of 70 μl of Stop buffer (100 mM HEPES pH 7.5, 0.015% Brij-35, 10 mM EDTA (Sigma, E7889)).
The plate was read on a Caliper LC 3000 in an Off-Chip mobility shift assay format, using the following parameters for a 12-sipper chip: screening pressure −2.3 psi, upstream voltage −500, and downstream voltage −3000. These conditions caused unphosphorylated substrate and phosphorylated product peptide to resolve as separate peaks allowing direct measurement of percentage of conversion of substrate to product. The percent conversion was plotted against concentration of inhibitor to produce a sigmoidal dose response curve, from which an IC50 was calculated.

[1] = target: P70S6K (T412E mutant, Millipore) (Homo sapiens (Human), UniProt P23443, T412E); assay: P70S6K enzyme assay; type: biochemical; conditions: 24 μM ATP, 90 min at 25° C.
Chain of P70S6K (T412E mutant, Millipore) (P23443 whole entry T412E): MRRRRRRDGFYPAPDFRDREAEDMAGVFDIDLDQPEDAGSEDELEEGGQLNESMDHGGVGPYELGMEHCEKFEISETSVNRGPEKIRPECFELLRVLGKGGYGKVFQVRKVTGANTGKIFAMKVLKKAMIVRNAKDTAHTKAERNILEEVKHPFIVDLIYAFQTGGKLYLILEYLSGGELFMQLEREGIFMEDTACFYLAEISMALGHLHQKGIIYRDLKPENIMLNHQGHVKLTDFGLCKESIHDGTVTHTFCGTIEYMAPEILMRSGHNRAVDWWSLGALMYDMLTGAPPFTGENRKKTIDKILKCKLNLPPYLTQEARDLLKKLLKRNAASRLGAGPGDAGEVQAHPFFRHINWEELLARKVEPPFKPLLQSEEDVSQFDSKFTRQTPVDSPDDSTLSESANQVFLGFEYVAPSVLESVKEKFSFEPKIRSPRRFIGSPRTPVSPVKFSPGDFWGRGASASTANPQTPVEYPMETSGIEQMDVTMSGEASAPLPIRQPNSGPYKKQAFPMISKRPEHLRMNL
Procedure: P70S6K inhibitor compounds were diluted and plated in 96 well plates. A reaction mixture including the following components was then added to the compound plate to initiate the enzyme reaction; P70S6K (3 nM, T412E mutant, Millipore) was mixed with 24 μM ATP in an assay buffer containing 100 mM Hepes (pH 7.5), 5 mM MgCl2, 1 mM DTT, 0.015% Brij and 1 μM of the substrate peptide FITC-AHA-AKRRRLSSLRA-OH (derived from the S6 ribosomal protein sequence, FITC=fluorescein isothiocyanate, AHA=6-aminohexanoic acid). The reaction was incubated for 90 min at 25° C., before the addition of 10 mM EDTA to stop the reaction. The proportion of substrate and product (phosphorylated) peptide was analysed on a Caliper Life Sciences Lab Chip 3000, using a pressure of −1.4 psi, and upstream and downstream voltages of −3000 and −700 respectively. Product peaks were resolved before substrate peaks on the resulting chromatograms.

Chain of His-AKT (Full Length) (P31749 whole entry): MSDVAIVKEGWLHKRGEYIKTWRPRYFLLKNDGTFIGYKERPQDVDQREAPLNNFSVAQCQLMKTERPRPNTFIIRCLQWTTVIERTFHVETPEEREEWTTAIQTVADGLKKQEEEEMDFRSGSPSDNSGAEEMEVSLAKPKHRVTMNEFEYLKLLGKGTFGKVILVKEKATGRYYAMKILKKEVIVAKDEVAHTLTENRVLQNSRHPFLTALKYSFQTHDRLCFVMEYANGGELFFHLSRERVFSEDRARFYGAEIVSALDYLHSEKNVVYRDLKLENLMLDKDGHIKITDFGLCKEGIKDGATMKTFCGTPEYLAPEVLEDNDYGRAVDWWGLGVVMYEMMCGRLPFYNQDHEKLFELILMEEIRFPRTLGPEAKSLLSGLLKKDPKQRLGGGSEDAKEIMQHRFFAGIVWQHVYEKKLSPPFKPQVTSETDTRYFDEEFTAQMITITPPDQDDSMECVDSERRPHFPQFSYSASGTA

Row | Compound | pIC50 (His-AKT (Full Length)) | pIC50 [1]
1 | O=C1CNc2ncnc(N3CCN(C(CN4CCCCC4)c4ccc(F)c(Cl)c4)CC3)c2N1 (stereo not drawn) [Compound A57] | < 6.00 | < 6.00
2 | CNCC(c1ccc(Cl)c(F)c1)N1CCN(c2ncnc3c2NC(=O)CN3)CC1 (stereo not drawn) [Compound A59, 4-(4-(1-(4-chloro-3-fluorophenyl)-2-(methylamino)ethyl)piperazin-1-yl)-7,8-dihydropteridin-6(5H)-one] | < 6.00 | < 6.00
3 | O=C1CNc2ncnc(N3CCN(C(CN4CCCC4)c4ccc(Cl)c(F)c4)CC3)c2N1 (stereo not drawn) [Compound A61, 4-(4-(1-(4-chloro-3-fluorophenyl)-2-(pyrrolidin-1-yl)ethyl)piperazin-1-yl)-7,8-dihydropteridin-6(5H)-one] | 6.30 to 7.00 | < 6.00
4 | O=C1CNc2ncnc(N3CCN(C(CN4CCCCC4)c4ccc(Cl)c(F)c4)CC3)c2N1 (stereo not drawn) [Compound A62, 4-(4-(1-(4-chloro-3-fluorophenyl)-2-(piperidin-1-yl)ethyl)piperazin-1-yl)-7,8-dihydropteridin-6(5H)-one] | 6.00 to 6.30 | < 6.00
5 | Cc1ccc(C(CNCCN(C)C)N2CCN(c3ncnc4c3NC(=O)CN4)CC2)cc1 (stereo not drawn) [Compound A65, 4-(4-(2-((2-(dimethylamino)ethyl)amino)-1-(p-tolyl)ethyl)piperazin-1-yl)-7,8-dihydropteridin-6(5H)-one] | < 6.00 | < 6.00

The remaining lines, values ahead:

Row | pIC50 (His-AKT (Full Length)) | pIC50 [1] | Compound
6 | 6.30 to 7.00 | < 6.00 | CN(C)CC(c1ccc(Cl)c(F)c1)N1CCN(c2ncnc3c2NC(=O)CN3)CC1 (stereo not drawn) [Compound A58, 4-(4-(1-(4-chloro-3-fluorophenyl)-2-(dimethylamino)ethyl)piperazin-1-yl)-7,8-dihydropteridin-6(5H)-one]
7 | < 6.00 | < 6.00 | O=C1CNc2ncnc(N3CCN(C(CN4CCC4)c4ccc(Cl)c(F)c4)CC3)c2N1 (stereo not drawn) [Compound A60, 4-(4-(2-(azetidin-1-yl)-1-(4-chloro-3-fluorophenyl)ethyl)piperazin-1-yl)-7,8-dihydropteridin-6(5H)-one]
8 | < 6.00 | < 6.00 | CN(C)CCNCC(c1ccc(C(F)(F)F)cc1)N1CCN(c2ncnc3c2NC(=O)CN3)CC1 (stereo not drawn) [Compound A63, 4-(4-(2((2-(dimethylamino)ethyl)amino)-1-(4-(trifluoromethyl)phenyl)-ethyl)piperazin-1-yl)-7,8-dihydropteridin-6(5H)-one]
9 | < 6.00 | < 6.00 | CN(C)CCNCC(c1cccc(C(F)(F)F)c1)N1CCN(c2ncnc3c2NC(=O)CN3)CC1 (stereo not drawn) [Compound A64, 4-(4-(2-((2-(dimethylamino)ethyl)amino)-1-(3-(trifluoromethyl)phenyl)-ethyl)piperazin-1-yl)-7,8-dihydropteridin-6(5H)-one]
